Article PMC7997032, “Organic synthesis and anti-influenza A virus activity of cyclobakuchiols A, B, C, and D” (PLoS ONE, 2021)
Values joined by “and” are separate entries in the source; they are usually repeats but may differ in a detail not shown here. Equal entries are not always repeated.

Tested on: myxovirus-resistant protein 1 (Mx1)
Test: RT-qPCR of Mx1 mRNA in MDCK cells with or without A/PR/8/34 virus
Type: cell-based, canine
Details: for MDCK Mx1 mRNA, ave / MDCK Mx1 mRNA, individual replicates: 12.5uM, relative to virus - DMSO; for MDCK Mx1 mRNA, ave: ave of #1-3 exp; for MDCK Mx1 mRNA, individual replicates: replicates 1-3 of #1, #2, #3 exp

Compound	MDCK Mx1 mRNA, ave (virus +)	MDCK Mx1 mRNA, ave (virus -)	mRNA level of Mx1 compared with 4 or 5-treatment	other results
C=C[C@]1(C)CCC(C(=C)C)C(c2ccc(O)cc2)C1 (stereo in doubt) [cyclobakuchiol B]	2.462	0.5972	–	MDCK Mx1 mRNA, individual replicates (virus +, listed as Cyclobakuchiol B): 0.2997 and 4.213 and 3.979 and 5.553 and 2.777 and 2.185 and 2.395 and 0.2998 and 0.4603; MDCK Mx1 mRNA, individual replicates (virus -, listed as Cyclobakuchiol B): 0.4518 and 0.5333 and 0.4418 and 0.5841 and 1.295 and 0.3791 and 0.8214 and 0.4024 and 0.4657
C=C[C@]1(C)CCC(C(C)(C)O)C(c2ccc(O)cc2)C1 (stereo in doubt) [cyclobakuchiol D]	4.805	1.431	–	MDCK Mx1 mRNA, individual replicates (virus +, listed as Cyclobakuchiol D): 0.823 and 8.732 and 6.853 and 11.4737 and 5.421 and 3.904 and 4.71 and 0.7737 and 0.5563; MDCK Mx1 mRNA, individual replicates (virus -, listed as Cyclobakuchiol D): 1.033 and 1.181 and 1.602 and 1.158 and 2.885 and 1.4873 and 1.3014 and 1.1198 and 1.11
C=C[C@@](C)(/C=C/c1ccc(O)cc1)CCC=C(C)C [(+)-(S)-bakuchiol, reference compound]	1.1334	0.4419	significantly reduced	virus-induced upregulation of Mx1 mRNA: significantly reduced; MDCK Mx1 mRNA, individual replicates (virus +): 0.2413 and 1.8944 and 2.953 and 2.445 and 0.9019 and 0.5846 and 0.6126 and 0.2532 and 0.315; MDCK Mx1 mRNA, individual replicates (virus -): 0.2755 and 0.4409 and 0.4188 and 0.4047 and 0.5819 and 0.4639 and 0.4949 and 0.4956 and 0.401
C=C[C@]1(C)CCC(C(C)(C)O)C(c2ccc(O)cc2)C1 (stereo in doubt) [cyclobakuchiol C]	4.111	1.049	–	MDCK Mx1 mRNA, individual replicates (virus +, listed as Cyclobakuchiol C): 0.595 and 6.605 and 6.273 and 8.3748 and 5.332 and 3.973 and 4.3945 and 0.841 and 0.6149; MDCK Mx1 mRNA, individual replicates (virus -, listed as Cyclobakuchiol C): 0.8391 and 0.8734 and 1.094 and 0.9606 and 1.231 and 1.129 and 1.257 and 1.188 and 0.8673
C=C[C@]1(C)CCC(C(=C)C)C(c2ccc(O)cc2)C1 (stereo in doubt) [cyclobakuchiol A]	1.207	0.4356	significantly reduced	MDCK Mx1 mRNA, individual replicates (virus +, listed as Cyclobakuchiol A): 0.2527 and 2.463 and 2.156 and 2.352 and 0.9916 and 0.8981 and 0.9472 and 0.4146 and 0.3917; MDCK Mx1 mRNA, individual replicates (virus -, listed as Cyclobakuchiol A): 0.3455 and 0.4424 and 0.367 and 0.3469 and 0.4512 and 0.4646 and 0.7257 and 0.3943 and 0.3827
